This experiment relates to HBV DNA in HepG2.2.15 cells. Put plainly: HBV in vitro dot-blot hybridization test. It is filed as cell-based, Hepatitis B virus. The gist of the method:
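HepG2.2.15 cells (4×10^4/well) treated in duplicate with 6 five-fold compound dilutions (1% DMSO final), medium with compound renewed on day 5, cells harvested day 8-9. Intracellular HBV DNA quantified by dot-blot with DIG-labelled probe; % inhibition normalised to 1 μM GLS4 (100%) and DMSO (0%), EC50 fitted.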

The mark [1] stands for this setting: Hepatitis B virus, HepG2.2.15, dot-blot hybridization assay, read-out: Concentration for 50% inhibition of HBV (EC50)value.
[2] abbreviates: Hepatitis B virus, HepG2.2.15, summary list of target compounds, Examples 1-165 (same as Table 2), read-out: BIOACTIVITY (inhibitory actions on HBV DNA, EC50).
Setting [3] is: summary list of target compounds, Examples 1-165 (same as Table 2), read-out: BIOACTIVITY (inhibitory actions on HBV DNA, EC50).

pEC50: −log10 of the molar value. Where two headings read alike, the source gives them in different places.

For `CCOC(=O)C1=C2C[C@H](CN3CCC[C@H]3C(=O)OC)CN2C(c2nccs2)=N[C@H]1c1ccc(F)cc1Br` [Example 22], the pEC50 reads like this: under setting [1], 5.30 to 6.00; under setting [2], 5.30 to 6.00.

For the compound `CCOC(=O)C1=C2C[C@H](CNS(=O)(=O)C3CC3)CN2C(c2nccs2)=N[C@H]1c1ccc(F)cc1Br` [Example 121], the pEC50 was above 7.00 under setting [1] and above 7.00 under setting [2].

As for `COC(=O)C1=C2C[C@H](NS(=O)(=O)CCO)CN2C(c2nccs2)=N[C@H]1c1ccc(F)cc1Cl` [Example 161], the pEC50 is, setting by setting: under setting [1], above 7.00; under setting [2], above 7.00.

As for `CCOC(=O)C1=C2CN(C(=O)C3COC3)CCN2C(c2nccs2)=N[C@H]1c1ccc(F)cc1Br` [Example 118], the pEC50 under setting [1] was 6.30 to 7.00 and the pEC50 under setting [2] was 6.30 to 7.00.

In the case of `CCOC(=O)C1=C2C[C@H](N3CCOC3=O)CN2C(c2nccs2)=N[C@H]1c1ccc(F)cc1Br` [Example 66], the pEC50 is 6.30 to 7.00 under setting [1] and 6.30 to 7.00 under setting [2].

`CCOC(=O)C1=C2CNCCN2C(c2nccs2)=NC1c1ccc(F)cc1Br` (racemic) [Example 83]: the pEC50 reads like this: under setting [1], 5.30 to 6.00; under setting [2], 5.30 to 6.00.

For `CCOC(=O)C1=C2CC(NC(=O)OC)CN2C(c2nccs2)=N[C@H]1c1ccc(F)cc1Br` (mixture of isomers) [Example 42], the pEC50 runs as follows: under setting [1], above 7.00; under setting [2], above 7.00.

As for `CCOC(=O)C1=C2C[C@H](CN3CCOCC3)CN2C(c2nccs2)=N[C@H]1c1ccc(F)cc1Br` [Example 15], the pEC50 runs as follows: under setting [1], 6.30 to 7.00; under setting [2], 6.30 to 7.00.

In the case of `CCOC(=O)C1=C2C[C@H](NS(=O)(=O)c3cnn(C)c3)CN2C(c2nccs2)=N[C@H]1c1ccc(F)cc1Cl` [Example 132], the pEC50 under setting [1] was above 7.00 and the pEC50 under setting [2] is above 7.00.

In the case of `CCOC(=O)C1=C2[C@@H](NS(C)(=O)=O)CCN2C(c2nccs2)=N[C@H]1c1ccc(F)cc1Br` [Example 146], the pEC50 is, setting by setting: under setting [1], 5.30 to 6.00; under setting [2], 5.30 to 6.00.

Regarding `CCOC(=O)C1=C2CN(CC(N)=O)CCN2C(c2nccs2)=NC1c1ccc(F)cc1Br` (racemic) [Example 95], the pEC50 is, setting by setting: under setting [1], 6.30 to 7.00; under setting [2], 6.30 to 7.00.

As for `CCOC(=O)C1=C2CN(C(=O)CN)CCN2C(c2nccs2)=N[C@H]1c1ccc(F)cc1Br` [Example 89], the pEC50 under setting [1] is 5.30 to 6.00 and the pEC50 under setting [2] was 5.30 to 6.00.

Regarding `CCOC(=O)C1=C2CCCN2C(c2nccs2)=NC1c1ccc(F)cc1F` (racemic) [Example 72], the pEC50 by setting is: under setting [1], 6.00 to 6.30; under setting [2], 6.00 to 6.30.

`CCOC(=O)C1=C2CCOC(=O)N2C(c2nccs2)=NC1c1ccc(F)cc1Cl` (racemic) [Example 111]: the pEC50 is, setting by setting: under setting [1], 5.30 to 6.00; under setting [2], 5.30 to 6.00.

In the case of `CCOC(=O)C1=C2CCCCN2C(c2nccs2)=NC1c1ccc(F)cc1Cl` (racemic) [Example 109], the pEC50 by setting is: under setting [1], 5.30 to 6.00; under setting [2], 5.30 to 6.00.

Consider `CCOC(=O)C1=C2C[C@H](NC(=O)OC(C)C)CN2C(c2nccs2)=N[C@H]1c1ccc(F)cc1Br` [Example 47], for which the pEC50 runs as follows: under setting [1], above 7.00; under setting [2], above 7.00.

As to `CCOC(=O)C1=C2C[C@H](CC(=O)O)CN2C(c2nccs2)=N[C@H]1c1ccc(F)cc1Br` [Example 14], the pEC50 under setting [1] was 6.00 to 6.30 and the pEC50 under setting [2] is 6.00 to 6.30.

For the compound `CCOC(=O)C1=C2C[C@H](NS(C)(=O)=O)CN2C(c2nccs2)=N[C@H]1c1ccc(F)c(F)c1` [Example 148], the pEC50 by setting is: under setting [1], 6.30 to 7.00; under setting [2], 6.30 to 7.00.

Regarding `CCOC(=O)C1=C2CN(C(=O)OCC)CCN2C(c2nccs2)=NC1c1ccc(F)cc1Br` (stereo not shown) [Example 82], the pEC50 reads like this: under setting [1], 6.30 to 7.00; under setting [2], 6.30 to 7.00.

In the case of `CCOC(=O)C1=C2C[C@H](C(=O)NS(=O)(=O)C(F)(F)F)CN2C(c2nccs2)=N[C@H]1c1ccc(F)cc1F` [Example 137], the pEC50 runs as follows: under setting [1], 5.30 to 6.00; under setting [2], 5.30 to 6.00.

Turning to `CCOC(=O)C1=C2C[C@@H](NC(C)=O)CN2C(c2nccs2)=N[C@H]1c1ccc(F)cc1Br` [Example 49], the pEC50 under setting [1] is 6.30 to 7.00 and the pEC50 under setting [2] was 6.30 to 7.00.

As to `CCOC(=O)C1=C2CN(C)S(=O)(=O)CN2C(c2nccs2)=N[C@H]1c1ccc(F)cc1Br` [Example 136], the pEC50 was 6.00 to 6.30 under setting [1] and 6.00 to 6.30 under setting [2].

Turning to `CCOC(=O)C1=C2C[C@@H](CN3CCOCC3)CN2C(c2nccs2)=N[C@H]1c1ccc(F)cc1Br` [Example 16], the pEC50 is, setting by setting: under setting [1], 5.30 to 6.00; under setting [2], 5.30 to 6.00.

Regarding `CNS(=O)(=O)N[C@H]1CC2=C(C(=O)OC)[C@H](c3ccc(F)cc3Cl)N=C(c3nccs3)N2C1` [Example 160], the pEC50 under setting [1] is above 7.00 and the pEC50 under setting [2] was above 7.00.

As for `CCOC(=O)C1=C2COC(=O)N2C(c2nccs2)=NC1c1ccc(F)cc1Br` (racemic) [Example 67], the pEC50 was 6.30 to 7.00 under setting [1] and 6.30 to 7.00 under setting [2].

`CCOC(=O)C1=C2C[C@H](CNC(C)=O)CN2C(c2nccs2)=N[C@H]1c1ccc(F)cc1Br` [Example 120]: the pEC50 is, setting by setting: under setting [1], above 7.00; under setting [2], above 7.00.

As to `CCOC(=O)C1=C2C[C@H](N3CCOCC3)CN2C(c2nccs2)=N[C@H]1c1ccc(F)cc1Cl` [Example 130], the pEC50 by setting is: under setting [1], above 7.00; under setting [2], above 7.00.

For `CCOC(=O)C1=C2C(N(C)CCO)CCN2C(c2nccs2)=NC1c1ccc(F)cc1Cl` (racemic) [Example 2], the pEC50 was 5.30 to 6.00 under setting [1] and 5.30 to 6.00 under setting [2].

Turning to `CCOC(=O)C1=C2C[C@@H](C(N)=O)CN2C(c2nccs2)=NC1c1ccc(F)cc1Br` (mixture of isomers) [Example 28], the pEC50 was 6.30 to 7.00 under setting [1] and 6.30 to 7.00 under setting [2].

In the case of `CCOC(=O)C1=C2CNS(=O)(=O)CN2C(c2nccs2)=N[C@H]1c1ccc(F)cc1Br` [Example 135], the pEC50 by setting is: under setting [1], 6.00 to 6.30; (Hepatitis B virus, HepG2.2.15, read-out: BIOACTIVITY (inhibitory actions on HBV DNA, EC50), summary list of target compounds, Examples 1-165 (same as Table 2)) 6.00 to 6.30.

Turning to `CCOC(=O)C1=C2C[C@H](NC(=O)C(F)(F)F)CN2C(c2nccs2)=N[C@H]1c1ccc(F)cc1Cl` [Example 142], the pEC50 runs as follows: under setting [1], 6.30 to 7.00; under setting [2], 6.30 to 7.00.

For the compound `CCOC(=O)C1=C2CNC(=O)CN2C(c2nccs2)=NC1c1ccc(F)cc1Br` (racemic) [Example 104], the pEC50 runs as follows: under setting [1], 5.30 to 6.00; under setting [2], 5.30 to 6.00.

Consider `CCOC(=O)C1=C2C[C@H](NC(C)=O)CN2C(c2nccs2)=N[C@H]1c1ccc(F)cc1Br` [Example 50], for which the pEC50 is, setting by setting: under setting [1], 5.30 to 6.00; under setting [2], 5.30 to 6.00.

As to `CCOC(=O)C1=C2CCCN2C(c2ccsn2)=NC1c1ccc(F)cc1Cl` (racemic) [Example 77], the pEC50 was 5.30 to 6.00 under setting [1] and 5.30 to 6.00 under setting [2].

For the compound `COCC1CC2=C(C(=O)OC)C(c3ccc(F)cc3Br)N=C(c3nccs3)N2C1` (racemic) [Example 10], the pEC50 is 5.30 to 6.00 under setting [1] and 5.30 to 6.00 under setting [2].

`CCOC(=O)C1=C2CC(NS(=O)(=O)C(F)(F)F)CN2C(c2nccs2)=N[C@H]1c1ccc(F)cc1Br` (stereo partly shown) [Example 63]: the pEC50 reads like this: under setting [1], 6.30 to 7.00; under setting [2], 6.30 to 7.00.

With `CCOC(=O)C1=C2C[C@@H](NS(C)(=O)=O)CN2C(c2nccs2)=N[C@H]1c1ccc(F)cc1Cl` [Example 126], the pEC50 under setting [1] was above 7.00 and the pEC50 under setting [2] was above 7.00.

`CCOC(=O)C1=C2C[C@H](CS(C)(=O)=O)CN2C(c2nccs2)=N[C@H]1c1ccc(F)cc1Br` [Example 114]: the pEC50 is, setting by setting: under setting [1], 6.30 to 7.00; under setting [2], 6.30 to 7.00.

In the case of `CCOC(=O)C1=C2CN(CC(=O)OC)CCN2C(c2nccs2)=N[C@H]1c1ccc(F)cc1Br` [Example 98], the pEC50 was 5.30 to 6.00 under setting [1] and 5.30 to 6.00 under setting [2].

As for `CCOC(=O)C1=C2C[C@@H](CO)CN2C(c2nccs2)=N[C@H]1c1ccc(F)cc1Br` [Example 6], the pEC50 was above 7.00 under setting [1] and above 7.00 under setting [2].

As for `CCOC(=O)C1=C2C[C@@H](CC#N)CN2C(c2nccs2)=NC1c1ccc(F)cc1Br` (mixture of isomers) [Example 11], the pEC50 by setting is: (dot-blot hybridization assay, read-out: Concentration for 50% inhibition of HBV (EC50)value) 5.30 to 6.00; under setting [3], 5.30 to 6.00.

As to `CCOC(=O)C1=C2C[C@@H](N)CN2C(c2nccs2)=N[C@H]1c1ccc(F)cc1Br` [Example 40], the pEC50 under setting [1] is 5.30 to 6.00 and the pEC50 under setting [2] was 5.30 to 6.00.

With `CCOC(=O)C1=C2C[C@H](NC(=O)OC(C)(C)C)CN2C(c2nccs2)=N[C@H]1c1ccc(F)cc1Br` [Example 38], the pEC50 by setting is: under setting [1], above 7.00; under setting [2], above 7.00.

Consider `CCOC(=O)C1=C2CC(NC(=O)NC)CN2C(c2nccs2)=N[C@H]1c1ccc(F)cc1Br` (stereo partly shown) [Example 52], for which the pEC50 reads like this: under setting [1], 6.00 to 6.30; under setting [2], 6.00 to 6.30.

As for `CCOC(=O)C1=C2C[C@H](N3CCCC3C(=O)OC)CN2C(c2nccs2)=N[C@H]1c1ccc(F)cc1Cl` (stereo partly shown) [Example 131], the pEC50 runs as follows: under setting [1], 5.30 to 6.00; under setting [2], 5.30 to 6.00.

As to `CCOC(=O)C1=C2C[C@@H](CO)CN2C(c2nccs2)=NC1c1ccc(F)cc1Br` (mixture of isomers) [Example 9], the pEC50 under setting [3] was 6.30 to 7.00.

`CCOC(=O)C1=C2C[C@H](NS(C)(=O)=O)CN2C(c2nccs2)=N[C@H]1c1ccc(Cl)cc1Cl` [Example 151]: the pEC50 under setting [1] was above 7.00 and the pEC50 under setting [2] was above 7.00.

As to `CCOC(=O)C1=C2C[C@H](N)CN2C(c2nccs2)=N[C@H]1c1ccc(F)cc1Br` [Example 41], the pEC50 runs as follows: under setting [1], 5.30 to 6.00; under setting [2], 5.30 to 6.00.

Turning to `CCOC(=O)C1=C2CN(S(=O)(=O)C3CC3)CCN2C(c2nccs2)=N[C@H]1c1ccc(F)cc1Br` [Example 93], the pEC50 under setting [1] was 6.30 to 7.00 and the pEC50 under setting [2] is 6.30 to 7.00.

For the origin of these results see patent US9938301B2, “Dihydropyrimido fused ring derivative as HBV inhibitor” (QILU PHARMACEUTICAL CO., LTD., priority 2014, dated 2018).
